This is an account of results in patent US10851089B2, “Matrix metalloproteinase (MMP) inhibitors and methods of use thereof” (Foresee Pharmaceuticals Co., Ltd., priority 2018, dated 2020).

One experiment has as its target recombinant human MMP-10 (Homo sapiens (Human), UniProt P09238). Put plainly: MMP selectivity assay MMP-10. The class given is biochemical. As for the experimental part: (§1) The inhibitory effect of compounds on the rate of cleaving fluorogenic MMP substrate (Enzo, BML-P128) by recombinant human MMP-12 catalytic domain (Enzo, BML-SE138) was carried out by methods known in the art. Briefly, to each well of a 96-well black opaque plate, all the reagents were sequentially added by pipetting, and the final reaction contained 4 nM of recombinant human MMP-12 catalytic domain, 4 μM of fluorogenic MMP substrate, and various concentrations (0.15 nM to 10,000 nM) of tested compound dilutions in HEPES buffer (pH 7.5) containing 10 mM of CaCl2, 0.01% Brij® 35 (polyoxyethylene (23) lauryl ether), and 0.1 mg/ml of BSA.
(§2) The enzyme and compounds were pre-incubated on a shaker to mix in wells. After an hour of mixing, fluorogenic substrate was added to each well. Reaction without enzyme was used as a blank control in the plate. The plate was then fed into a plate reader to measure fluorescence intensity at Excitation/Emission wavelengths of 340 nm/440 nm every 10 mins for at least 1 hour at 37° C. The IC50 of each compound in MMP-12 inhibition was determined by using a readout obtained at time point 30 minutes.
(§3) The MMP selectivity assay was performed by using other recombinant human MMPs, including MMP-1, MMP-2, MMP-3, MMP-7, MMP-8, MMP-9, MMP-10, MMP-13, and MMP-14. The IC50 of the compounds for the other recombinant human MMPs was determined as described above in Example 1, and are shown in Table 2.

For another experiment, the target named is recombinant human MMP-2 (Homo sapiens (Human), UniProt P08253). Description: MMP selectivity assay MMP-2. The class given is biochemical. As for the experimental part:
as §1, §2, §3

In a further experiment the target is recombinant human MMP-14 (Homo sapiens (Human), UniProt P50281). Put plainly: MMP selectivity assay MMP-14. The class given is biochemical. As for the experimental part: as §1, §2, §3
Experiment [1] deals with UUO-induced renal fibrosis. Description: SD rat kidney fibrosis model by unilateral ureteral occlusion (UUO). The class given is in vivo, Sprague Dawley rat. As for the experimental part: This study was to evaluate the therapeutic efficacy of the MMP-12 inhibitor FC-4 on a renal fibrosis model by unilateral ureteral occlusion (UUO). Male Sprague Dawley (SD) rats (180-220 g, n=71) were used in this study. Animals were randomly divided into 4 groups: vehicle group (group-1, n=8), FC-4 2 mg/kg/day group (group-2, n=9), FC-4 6 mg/kg/day group (group-3, n=9), FC-4 20 mg/kg/day group (group-4, n=9). Animals were anesthetized with 2.5% isoflurane inhalation. The left ureter was ligated to create a unilateral ureteral occlusion (UUO) model to induce renal fibrosis. The test article FC-4 was administrated twice a day via oral delivery after modeling for 14 days. Peripheral blood serum was prepared at pre-modeling and day-15 (one day after last dosing). All animals were euthanized and processed for left kidney pathology studies.
Animals: Gender: Male, SD rats, 180-220 g, total 71. Certificate: 11400700272659, Beijing Vital River Laboratory Animal Technology Co., Ltd., China. Animal holding: Animals were maintained in a temperature-controlled environment with a 12 hours light/12 hours dark cycle and free access to food and water. Experimental procedures were performed according to IACUC guidelines in the KCI (SuZhou) Biotech Inc. (KCI) animal research facility. Model creation: Total 36 male SD rats were used in this study. After anesthesia with 2.5% isoflurane inhalation the animal abdomen was opened surgically. The left ureter was exposed and ligated close to the bladder to create the UUO model. After confirming no bleeding, the abdomen wall was closed in layers. The animals were maintained under temperature controlled pad (37° C.) for the recovery from anesthesia, and then were transferred to holding cages with regular food and water.
Experiment grouping: UUO modeling animals were divided into 4 groups randomly as vehicle (group-1, n=9), FC-4 2 mg/kg/day (group-2, n=9), FC-4 6 mg/kg/day (group-3, n=9), FC-4 20 mg/kg/day (group-4, n=9) (Table 4.1). Dosing regimen: All test articles were designed as an oral administration via a gastric perfusion. Test articles were designed to be delivered twice a day starting on the same day of modeling for 14 days (Table 4.1). Endpoints: 1) Blood collection: Peripheral blood was collected from all animals in each group and prepared for serum at pre-modeling and day-15 (one day after last dosing), stored at −80° C. All animals were euthanized according to KCI SOP. After confirming animal death without breath and heart beat, the left kidneys were perfused with cold PBS followed by 10% neutral formalin and collected for further pathology study. 2) Detection of serum BUN and creatinine: The serum BUN and creatinine level were detected with Hitachi 7060 automatic biochemical analyzer and related test kits. 3) Kidney pathology examination: 3a) Kidney H&E staining and analysis: Following KCI's pathologic SOP all left kidneys were fixed in 10% formalin for at least 24 h at room temperature. After fixation, the kidney was cut longitudinally to get the largest surface and dehydrated in graded ethanol, cleared in xylene, and embedded in paraffin. Thin sections (3-μm) were mounted on glass slides, dewaxed, rehydrated to distilled water, and stained with hematoxylin and eosin (H&E). All stained slides were scanned with NanoZoomer Digital Pathology (S210, Hamamaci, Japan) scanner. Semi quantitative evaluation of the degree of tubular epithelial flattening and dilatation were graded from 0-5 according to the percentage of tubular involvement: score 0=no damage; score 1=1-10% damage; score 2=10-25% damage; score 3=25-50% damage; score 4=50-75% damage; score 5=75-100% damage. Semi quantitative evaluation of the tubular necrosis is graded from 0 to 3 according to the percentage of tubular involvement: score 0=no necrosis; score 1=<25% necrosis; score 2=25-50% necrosis; score 3=>50% necrosis. The average of tubular flattening and dilatation and necrosis as the total tubular damage was presented. […]

In another experiment the target is recombinant human MMP-3 (Homo sapiens (Human), UniProt P08254). Description: MMP selectivity assay MMP-3. The class given is biochemical. As for the experimental part:
as §1, §2, §3

The target of experiment [2] is recombinant human MMP-12 catalytic domain (Homo sapiens (Human), UniProt P39900). Description: MMP-12 inhibitory assay (fluorogenic substrate cleavage). The class given is biochemical. As for the experimental part:
as §1, §2

The next experiment addresses recombinant human MMP-8 (Homo sapiens (Human), UniProt P22894). Put plainly: MMP selectivity assay MMP-8. The class given is biochemical. As for the experimental part:
as §1, §2, §3

Like-named read-outs stand apart in the source and are kept apart here.

recombinant human MMP-12 catalytic domain, sequence (P39900 106-263): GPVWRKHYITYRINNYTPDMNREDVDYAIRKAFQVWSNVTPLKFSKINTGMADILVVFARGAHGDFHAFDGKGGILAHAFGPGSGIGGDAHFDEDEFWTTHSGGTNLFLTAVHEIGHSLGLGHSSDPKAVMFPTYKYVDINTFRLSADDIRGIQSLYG
recombinant human MMP-2, sequence (P08253 110-660): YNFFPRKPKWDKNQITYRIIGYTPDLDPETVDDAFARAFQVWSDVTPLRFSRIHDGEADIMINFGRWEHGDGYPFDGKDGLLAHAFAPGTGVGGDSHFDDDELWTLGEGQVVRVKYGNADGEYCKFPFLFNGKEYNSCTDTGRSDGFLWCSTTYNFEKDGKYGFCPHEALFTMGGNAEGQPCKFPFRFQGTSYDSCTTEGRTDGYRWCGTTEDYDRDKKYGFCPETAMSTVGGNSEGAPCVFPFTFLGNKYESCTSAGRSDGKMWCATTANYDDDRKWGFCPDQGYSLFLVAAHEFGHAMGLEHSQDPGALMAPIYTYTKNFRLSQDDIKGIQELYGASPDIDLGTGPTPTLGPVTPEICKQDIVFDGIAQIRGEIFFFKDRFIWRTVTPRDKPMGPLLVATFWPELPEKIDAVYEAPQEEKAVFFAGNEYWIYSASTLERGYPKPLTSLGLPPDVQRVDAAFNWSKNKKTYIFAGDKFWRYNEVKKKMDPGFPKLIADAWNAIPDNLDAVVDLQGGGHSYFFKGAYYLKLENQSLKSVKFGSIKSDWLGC
recombinant human MMP-8, sequence (P22894 101-467): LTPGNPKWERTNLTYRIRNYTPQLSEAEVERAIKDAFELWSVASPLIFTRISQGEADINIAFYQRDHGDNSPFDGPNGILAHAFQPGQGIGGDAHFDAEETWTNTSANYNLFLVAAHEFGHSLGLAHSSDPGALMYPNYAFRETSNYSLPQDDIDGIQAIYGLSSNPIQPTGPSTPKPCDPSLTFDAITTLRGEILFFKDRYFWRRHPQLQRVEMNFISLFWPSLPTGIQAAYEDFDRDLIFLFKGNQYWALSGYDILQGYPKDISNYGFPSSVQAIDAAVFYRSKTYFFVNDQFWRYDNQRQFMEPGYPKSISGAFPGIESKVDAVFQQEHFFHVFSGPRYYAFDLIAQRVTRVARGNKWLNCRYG
recombinant human MMP-3, sequence (P08254 100-477): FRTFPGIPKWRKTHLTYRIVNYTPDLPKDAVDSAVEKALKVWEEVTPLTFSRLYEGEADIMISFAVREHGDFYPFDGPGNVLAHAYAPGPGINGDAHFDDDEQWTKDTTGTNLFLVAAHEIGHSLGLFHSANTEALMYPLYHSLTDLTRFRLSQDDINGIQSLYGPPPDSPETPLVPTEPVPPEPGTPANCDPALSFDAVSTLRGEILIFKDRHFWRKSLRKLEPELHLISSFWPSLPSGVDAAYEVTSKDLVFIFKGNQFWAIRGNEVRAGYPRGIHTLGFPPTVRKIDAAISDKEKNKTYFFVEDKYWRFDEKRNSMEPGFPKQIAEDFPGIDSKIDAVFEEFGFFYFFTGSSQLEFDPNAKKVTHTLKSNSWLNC
recombinant human MMP-10, sequence (P09238 99-476): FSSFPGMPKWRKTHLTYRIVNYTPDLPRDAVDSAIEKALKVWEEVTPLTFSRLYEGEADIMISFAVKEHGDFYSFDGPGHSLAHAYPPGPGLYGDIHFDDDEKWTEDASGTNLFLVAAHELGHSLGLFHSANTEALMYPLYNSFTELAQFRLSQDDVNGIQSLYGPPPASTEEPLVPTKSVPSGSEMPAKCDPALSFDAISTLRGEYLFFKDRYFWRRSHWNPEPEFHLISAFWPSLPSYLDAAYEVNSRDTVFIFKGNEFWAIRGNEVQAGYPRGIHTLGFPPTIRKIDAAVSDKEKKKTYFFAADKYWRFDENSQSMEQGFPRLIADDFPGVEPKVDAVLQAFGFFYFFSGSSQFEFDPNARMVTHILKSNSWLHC

As for `Cc1cc(COc2ccc(Sc3ccoc3C3NC(=O)NC3=O)cc2)ccn1` (centres unmarked) [FC-4], the IC50 at recombinant human MMP-10 was 100 to 1000 nM; at recombinant human MMP-2, 100 to 1000 nM; at recombinant human MMP-14 it was 1000 to 10000 nM; at recombinant human MMP-3, 100 to 1000 nM; in experiment [2] (Table 2 selectivity profile, read-out: MMP-12 activity (IC50)), below 10 nM; in experiment [2] (readout at 30 minutes, read-out: MMP-12 IC50) it was below 10 nM. Moreover, the concentration for half-maximal inhibition (IC50) on recombinant human MMP-8 lay within 10 to 100 nM. For the same compound, the “Collagen-IV deposition in cortex of left kidney (IHC)” value in experiment [1] (6 mg/kg/day, p<0.05) was “significant reduction”; in experiment [1] (20 mg/kg/day, p<0.001), “significant reduction”. The “Collagen-I deposition in cortex of left kidney (IHC)” value in experiment [1] (20 mg/kg/day) is given as “significant reduction”. For the same compound, in experiment [1] (20 mg/kg/day p.o. bid, day-15, not statistically significant vs model), the “Serum BUN elevation” value is reported as “slightly limit the BUN elevation”. In experiment [1] (20 mg/kg/day, p<0.001), the “Interstitial fibrosis score in cortex” value is recorded as “significant reduction”. Further, the “Left kidney tubular damage score” value in experiment [1] (2, 6, 20 mg/kg/day, 20 more effective than 2 mg/kg/day (p<0.01)) is listed as “clear dose dependent effect”. Further, the “Interstitial inflammation in cortex (semi quantitative)” value in experiment [1] (dose dependent efficacy) is listed as “significant reduction”.
